Legend:
HbA1c = assay: 26-week clinical trial in adult patients with T2D: change in HbA1c; assay type: in vivo, human; conditions: baseline to week 26
Method: A 26-week, randomized, double-blind clinical trial was carried out with adult patients with T2D, HbA1c 7.0-10.0% (53-86 mmol/mol), and body mass index 24.0-40.0 kg/m^2 who were treated with diet and exercise±metformin. […] The primary endpoint was change in HbA1c from baseline to week 26. Key exclusion criteria were a history of chronic or idiopathic acute pancreatitis and moderate-to-severe renal impairment (estimated glomerular filtration rate <60 mL/min/1.73 m^2).
Trial drug administration: Following a 2-week screening period, patients received trial medication for 26 weeks, followed by a 7-week follow-up period.

[1] = 52-week clinical trial in obese subjects without diabetes mellitus: gastrointestinal adverse events; assay type: in vivo, human; conditions: for Gastrointestinal adverse events, Observed data, % (percentage of subjects with at least one event) / Nausea, % (percentage of subjects experiencing at least one event) / Nausea, E (number of events) / Nausea, Ne (number of subjects experiencing at least one event) / Gastrointestinal adverse events, Observed data, Ne (number of subjects experiencing at least one event): on-treatment; for Nausea, % (percentage of subjects experiencing at least one event) / Nausea, E (number of events) / Nausea, Ne (number of subjects experiencing at least one event): observed data
Method: This trial was designed as a 52-week, randomised, double-blind, placebo-controlled, sixteen-armed, parallel group, multi-centre, multinational trial comparing once-daily subcutaneous administration of semaglutide in five different doses (ranging from 0.05 mg/day to 0.4 mg/day) with placebo in obese subjects without diabetes mellitus. […] The trial was double-blinded between active and placebo treatment. To ensure a sufficiently large sample of men, no more than 70% of the trial population was allowed to be women and the randomisation was stratified according to sex. Subjects were randomised in a balanced manner (6:1 active:placebo).
The primary endpoint was relative change from baseline in body weight (%) at 52 weeks. Key secondary endpoints included proportion of subjects with weight loss of ≥5% or ≥10% of baseline body weight at 52 weeks as well as change in body weight from baseline to 52 weeks. Supportive secondary safety endpoints also included gastrointestinal (GI) adverse events (i.e. nausea, vomiting, diarrhoea and constipation). During each site visit the individual subject was asked via open questions if they had experienced any medical problems since the last visit. All medical problems either observed by the site staff or the subject was reported as an adverse event and evaluated for severity and causality by the investigator. For this trial the subjects had site visits every 2 weeks for the first 20 weeks of the trial and afterwards site visits was performed every 4 weeks.
Subjects in all treatment arms including placebo received nutritional counselling and a calorie-reduced diet by a dietician or equivalent qualified delegate as well as physical activity counselling by a qualified person on a monthly basis beginning at the randomisation visit. The trial population consisted of a total of 957 subjects were randomised. A total of 777 subjects (81.2%) completed 52 weeks of treatment; 180 (18.8%) discontinued treatment prematurely with no obvious dose-dependent trend. Key inclusion criteria for this trial were: Male or female, age ≥18 years at the time of signing inform consent; body mass index (BMI)≥30.0 kg/m2 at the screening visit; and at least one unsuccessful weight loss attempt per investigator judgement. Key exclusion criteria for this trial were: A HbA1c≥6.5% at screening or diagnosed with type 1 or type 2 diabetes mellitus; Treatment with glucose lowering agent(s) within 90 days before screening; Screening calcitonin ≥50 ng/L (pg/mL); Personal or family history of medullary thyroid carcinoma or multiple endocrine neoplasia syndrome type 2; History of pancreatitis (acute or chronic); Obesity induced by endocrine disorders (e.g. Cushing Syndrome); Treatment with any medication within 90 days before screening that based on investigator's judgement may cause significant weight change; Previous surgical treatment for obesity (liposuction and/or abdominoplasty performed >1 year before screening is allowed); History of major depressive disorder within 2 years before randomisation; Any lifetime history of a suicidal attempt; and Female who is pregnant, breast-feeding or intends to become pregnant or is of childbearing potential and not using an adequate contraceptive method (adequate contraceptive measures as required by local regulation or practice).

[2] = Sema 0.05 mg once daily s.c., N 103
[3] = Sema 0.1 mg once daily s.c., N 102
[4] = Sema 0.2 mg once daily s.c., N 103
[5] = Sema 0.3 mg once daily s.c., N 103
[6] = Sema 0.4 mg once daily s.c., N 102

N^6.26-{18-[N-(17-carboxyheptadecanoyl)-L-γ-glutamyl]-10-oxo-3,6,12,15-tetraoxa-9,18-diazaoctadecanoyl}-[8-(2-amino-2-propanoic acid),34-L-arginine]human glucagon-like peptide 1(7-37) [Sema]
Mean Change in HbA1c % (SD) (HbA1c; Sema 0.05 mg once daily s.c.): −0.97 (0.85) % | Mean Change in HbA1c % (SD) (HbA1c; Sema 0.1 mg once daily s.c.): −1.30 (1.03) % | Mean Change in HbA1c % (SD) (HbA1c; Sema 0.2 mg once daily s.c.): −1.65 (0.79) % | Mean Change in HbA1c % (SD) (HbA1c; Sema 0.3 mg once daily s.c.): −1.96 (0.95) % | Corresponding Sema dose (dosage of semaglutide providing the same level of gastrointestinal adverse events as 3.0 mg liraglutide) ([1]; Lira 3.0 mg, Emax model, Estimate [95% CI]): 0.28 mg | Gastrointestinal adverse events, Observed data, % (percentage of subjects with at least one event) ([1]; Sema 0.05 mg once daily s.c.): 62.1% | Nausea, % (percentage of subjects experiencing at least one event) ([1]; Sema 0.05 mg once daily s.c.): 31.1% | Nausea, E (number of events) ([1]; Sema 0.05 mg once daily s.c.): 41 | Nausea, Ne (number of subjects experiencing at least one event) [1, 2]: 32 | Gastrointestinal adverse events, Observed data, Ne (number of subjects experiencing at least one event) [1, 2]: 64 | Gastrointestinal adverse events, Observed data, % (percentage of subjects with at least one event) ([1]; Sema 0.1 mg once daily s.c.): 70.6% | Nausea, % (percentage of subjects experiencing at least one event) ([1]; Sema 0.1 mg once daily s.c.): 41.2% | Nausea, E (number of events) ([1]; Sema 0.1 mg once daily s.c.): 80 | Nausea, Ne (number of subjects experiencing at least one event) [1, 3]: 42 | Gastrointestinal adverse events, Observed data, Ne (number of subjects experiencing at least one event) [1, 3]: 72 | Gastrointestinal adverse events, Observed data, % (percentage of subjects with at least one event) ([1]; Sema 0.2 mg once daily s.c.): 69.9% | Nausea, % (percentage of subjects experiencing at least one event) ([1]; Sema 0.2 mg once daily s.c.): 43.7% | Nausea, E (number of events) ([1]; Sema 0.2 mg once daily s.c.): 74 | Nausea, Ne (number of subjects experiencing at least one event) [1, 4]: 45 | Gastrointestinal adverse events, Observed data, Ne (number of subjects experiencing at least one event) [1, 4]: 72 | Gastrointestinal adverse events, Observed data, % (percentage of subjects with at least one event) ([1]; Sema 0.3 mg once daily s.c.): 69.9% | Nausea, % (percentage of subjects experiencing at least one event) ([1]; Sema 0.3 mg once daily s.c.): 41.7% | Nausea, E (number of events) ([1]; Sema 0.3 mg once daily s.c.): 69 | Nausea, Ne (number of subjects experiencing at least one event) [1, 5]: 43 | Gastrointestinal adverse events, Observed data, Ne (number of subjects experiencing at least one event) [1, 5]: 72 | Gastrointestinal adverse events, Observed data, % (percentage of subjects with at least one event) ([1]; Sema 0.4 mg once daily s.c.): 82.4% | Nausea, % (percentage of subjects experiencing at least one event) ([1]; Sema 0.4 mg once daily s.c.): 48.0% | Nausea, E (number of events) ([1]; Sema 0.4 mg once daily s.c.): 94 | Nausea, Ne (number of subjects experiencing at least one event) [1, 6]: 49 | Gastrointestinal adverse events, Observed data, Ne (number of subjects experiencing at least one event) [1, 6]: 84

Source: patent US12551536B2, “Semaglutide in medical therapy” (Novo Nordisk A/S, priority 2017, dated 2026)
